Data set [1] in a line: Dynamic vapor sorption (DVS) at 25° C. and RH up to 90%. It counts as physicochemical. How it is done:
FIG. 4 depicts a DVS of Compound A monocitrate monohydrate Form A salt at 25° C. and RH up to 90%.

The nature of data set [2]: Plasma pharmacokinetics of compound A after twice daily dosing. It counts as in vivo.
A short description of data set [3]: Slurry and solvent evaporation polymorph experiments of Compound A citrate salt (Table 9). It counts as physicochemical. How it is done:
Based on the approximate solubility data of Compound A citrate salt, 18 polymorph experiments were started at RT with stirring (Table 9). Wet cakes from the slurry experiments were analyzed after 5 days of stirring. Wet cake XRPD patterns were checked and materials showing no pattern change were heated from RT to 50° C.
Procedure • 1) Slurry at RT: ˜35 mg citrate salt was slurried in different solvents in 4 mL vials using a magnetic stirrer at RT. The solids in slurry were characterized by XRPD after 3-5 days. • 2) Slurry at 50° C.: Slurries with no change in wet cake XRPD pattern when compared to starting material were heated from RT to 50° C. Samples were analyzed after 2-3 days of stirring.
Wet cake samples were isolated and kept at 25° C. for 2 h for drying. After drying, samples were analyzed by XRPD.

Data set [4] can be described thus: Polymorph screening of Compound A citrate salt, form conversion (XRPD, DSC/TGA, DVS). It counts as physicochemical. The settings on record: drying of wet cake (Form B); presence of water (Form C).
The nature of data set [5]: Form C screening experiments. It counts as physicochemical. The settings on record: Exp. 16: 40 mg in water 0.1 mL, RT; CL → HSL.
The nature of data set [6]: Form C water activity study in MeCN/water. It counts as physicochemical. As to the method: Water activity study in MeCN/water: A water activity investigation was conducted utilizing a MeCN/water system. […] Subsequently, Form A seeds were introduced into vials with water activities between 0.01 and 0.6. […] The solids were isolated and subjected to vacuum drying at room temperature overnight.

A short description of data set [7]: Form C slurry conditioning in EtOH/water (95/5). The format is physicochemical.
Data set [8] in a line: Form C characterization and relative stability of the forms. It counts as physicochemical.
Text: Moreover, HNMR studies validated a 1:1 stoichiometry between the freebase and acid.
Setting [9] is: about 163 mg twice daily in combination with a CYP3A4 inhibitor (e.g., a strong CYP3A4 inhibitor).

The structures appear in SMILES notation.

For `CCN(C(=O)c1cc(F)ccc1Oc1cncnc1N1CC2(CCN(C[C@H]3CC[C@H](NS(=O)(=O)CC)CC3)CC2)C1)C(C)C.O.O=C(O)CC(O)(CC(=O)O)C(=O)O`, in data set [1] (25° C., from 0% to 90% relative humidity), the “water absorbed (DVS)” value is reported as “about 1.9%”. Moreover, the hygroscopicity result in data set [1] (DVS at 25° C. and RH up to 90%) is reported as “not hygroscopic”. Moreover, the “area under plasma concentration versus time curve from time 0 to 12 hours (AUC(0-12h)) of compound A” value in data set [2] (setting [9]) is “about 22610 ng·h/mL”; in data set [2] (about 276 mg twice daily) it was “about 10150 ng·h/mL”. Besides, the “maximum plasma concentration (Cmax) of compound A” value in data set [2] (setting [9]) is given as “about 3220 ng/mL”; in data set [2] (about 276 mg twice daily), “about 2052 ng/mL”. In addition, the Form result in data set [3] (1,4-dioxane/H2O (7:3), solvent evaporation) is “Form A (FIG. 19)”; in data set [3] (Propanol/H2O (7:3), solvent evaporation), “Form A (FIG. 19)”; in data set [3] (THF/H2O (7:3), solvent evaporation), “Amorphous (FIG. 19)”; in data set [3] (slurry, 1,4-dioxane/H2O (7:3)) it was “Form A (FIG. 18)”; in data set [3] (slurry, 2-Me-THF, starting material a 1:1 mixture (footnote)), “Form A (FIG. 18)”; in data set [3] (slurry, Acetone/H2O (7:3)) it was “Form A (FIG. 18)”. In addition, the Form entry is recorded as “Form A (FIG. 17)” in data set [3] (slurry, DCM); “Form A (FIG. 17)” in data set [3] (slurry, EtOAc); “Form A (FIG. 18)” in data set [3] (slurry, H2O); “Form A (FIG. 18)” in data set [3] (slurry, IPAc); “Form A (FIG. 17)” in data set [3] (slurry, MEK); “Form A (FIG. 18)” in data set [3] (slurry, MTBE). Further, the Form result in data set [3] (slurry, MeCN) is recorded as “Form C (FIG. 14)”; in data set [3] (slurry, MeOH or EtOH, after air dry), “dry→Form A (FIG. 16)”; in data set [3] (slurry, MeOH or EtOH, wet cake), “Form B (Wet cake)→ air”; in data set [3] (slurry, Propanol/H2O (7:3)), “Form A (FIG. 18)”; in data set [3] (slurry, THF) it was “Form A (FIG. 17)”; in data set [3] (slurry, Toluene) it was “Form A (FIG. 17)”.

For the molecule `CCN(C(=O)c1cc(F)ccc1Oc1cncnc1N1CC2(CCN(CC3CCC(NS(=O)(=O)CC)CC3)CC2)C1)C(C)C.O=C(O)CC(O)(CC(=O)O)C(=O)O` (stereo not shown) [Form C], the “stability of polymorphic form / conversion” value in data set [4] was “unstable and converts to Form A in presence of water”. Moreover, the Form conversion result is given as “converts to Form A upon exposure to humidity” in data set [3] (dried solid, upon exposure to humidity); “transitions to Form A” in data set [8] (water and EtOH/water (95/5 v/v)). In addition, the “Crystal Form” value in data set [5] is recorded as “Form A”. In addition, the XRPD entry in data set [6] (Exp. 1: Form C 40 mg, MeCN/water aw 0.01, RT, no Form A seed) is “Form C”; in data set [6] (Exp. 1a: MeCN/water aw 0.01, RT, Form A seed 20 mg added), “Form C”; in data set [6] (Exp. 2: Form C 40 mg, MeCN/water aw 0.22, RT, no Form A seed), “Form C”; in data set [6] (Exp. 2a: MeCN/water aw 0.22, RT, Form A seed 20 mg added) it was “Form C”; in data set [6] (Exp. 3: Form C 40 mg, MeCN/water aw 0.41, RT, no Form A seed), “Form C”; in data set [6] (Exp. 3a: MeCN/water aw 0.41, RT, Form A seed 20 mg added), “Form C”. Further, the XRPD result in data set [6] (Exp. 4: Form C 40 mg, MeCN/water aw 0.59, RT, no Form A seed) is “Form C”; in data set [6] (Exp. 4a: MeCN/water aw 0.59, RT, Form A seed 20 mg added), “Form C”; in data set [7] (Exp. 1: Form C 40 mg, EtOH/water (95/5) 0.2, RT, no Form A seed, slurry overnight), “Form A”; in data set [7] (Exp. 2: Form C, EtOH/water (95/5), RT, Form A seed 20 mg), “Form A”. The “Form (XRPD) after addition of Form A seeds” value in data set [6] (MeCN/water, water activities 0.01 to 0.6, overnight stirring) is “match with the Form C”. The “Form stability (XRPD of wet cake)” value in data set [6] (MeCN/water, water activities 0.01 to 0.8, RT, overnight stirring) was “remained stable”. Also, the “Form (XRPD) of isolated vacuum-dried solids” value in data set [6] (water activity levels of 0.01-0.6) is “consistent with Form C”; in data set [6] (water activity of 0.8) it was “combination of Form C and Form A”. The “Form conversion on slurry conditioning” value in data set [7] (EtOH/water (95/5), overnight stirring) was “converted to Form A”. The “XRPD profile after heating” value in data set [8] (heating to 110° C.) is listed as “aligned with that of Form C”. Besides, the “Solid recovered from water” value in data set [8] (overnight stirring in water at RT) was “Form A was recrystallized”. The “XRPD pattern after drying” value in data set [8] (post-vacuum drying at room temperature) was “remained unchanged”.
